Our source for the IC50 values is patent publication US8546380B2, “Aminodihydrothiazine derivatives” (Shionogi & Co., Ltd., priority 2005, dated 2013).

SMILES strings stand for the structures. Where only a bound is given, the exact number is not on record here.

Sequence of recombinant human BACE-1 protein (P56817 46-501): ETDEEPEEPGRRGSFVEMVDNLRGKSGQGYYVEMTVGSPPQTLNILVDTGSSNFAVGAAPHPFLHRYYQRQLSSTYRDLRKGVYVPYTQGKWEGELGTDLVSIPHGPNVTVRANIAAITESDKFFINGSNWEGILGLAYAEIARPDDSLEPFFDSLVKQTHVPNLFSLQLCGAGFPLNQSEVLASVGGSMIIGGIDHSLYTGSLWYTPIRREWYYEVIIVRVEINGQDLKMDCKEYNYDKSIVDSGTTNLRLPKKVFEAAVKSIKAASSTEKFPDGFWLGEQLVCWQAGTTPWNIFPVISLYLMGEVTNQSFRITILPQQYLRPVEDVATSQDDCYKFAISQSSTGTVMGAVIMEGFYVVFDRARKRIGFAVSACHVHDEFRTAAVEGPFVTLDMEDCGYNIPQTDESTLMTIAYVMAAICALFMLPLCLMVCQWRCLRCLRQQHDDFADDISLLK

One experiment concerns the target recombinant human BACE-1 protein (Homo sapiens (Human), UniProt P56817). Kind of experiment: Measurement of Inhibition of β-Secretase Activity. In kind it is biochemical. Conditions: fluorescence-quenched peptide substrate 18 nM, BACE-1 7.4 nM, 3 h at 30° C., pH5.0; read-out: IC50 value. The protocol: Zero point five μL of the test compounds (dissolved in N,N′-dimethylsulfoxide) were incubated with 48.5 μL of the fluorescence-quenched peptide substrate solution (Biotin-XSEVNLDAEFRHDSGC-Eu:X=ε-amino-n-capronic acid, Eu=Europium cryptate) and 1 μL of recombinant human BACE-1 protein (R&D systems) for 3 h at 30° C. in the 96 well half-area plate (black color plate, Costar). The substrate peptide was synthesized by reacting with Biotin-XSEVNLDAEFRHDSGC (Peptide Institute) and Cryptate TBPCOOH mono SMP (CIS bio international). […] The enzymatic reaction was performed in sodium acetate buffer (50 mM sodium acetate (pH5.0), 0.008% Triton X-100). After the reaction, a 50 μL of 8.0 μg/mL Streptavidin-XL665 (CIS bio international) dissolved in phosphate buffer (150 mM K2HPO4—KH2PO4 (pH 7.0), 0.008% Triton X-100, 0.8 M KF) was add to each well and incubated for 1 h at 30° C.
As a reminder, the IC50 is the concentration that inhibits the measured activity by half. As to `CC1(c2cccc(NC(=O)C(=O)Nc3ccc(Cl)cc3)c2)CCSC(N)=N1` (stereo not drawn) [Compound 361], the IC50 was < 100 µM. Still for that read-out and setting: the value for `CC1(c2ccc(C(=O)NCc3ccc(Cl)cc3)s2)CCSC(N)=N1` (stereo not drawn) [Compound 1148] was < 100 µM. Same read-out and setting: the value for `CC1(c2cccc(OCC(=O)Nc3ccccc3)c2)CCSC(N)=N1` (stereo not drawn) [Compound 200] was < 100 µM; that for `CC1(c2cccc(NC(=O)/C=C/c3ccccc3)c2)CCSC(N)=N1` (stereo not drawn) [Compound 1258] was < 100 µM. As to `Cc1cccc(C(=O)Nc2cccc(C3(C)CCSC(N)=N3)c2)n1` (stereo not drawn) [Compound 348], the IC50 is < 100 µM.

With `CC1(c2cccc(NC(=O)c3ccc(F)c(O)c3)c2)CCSC(N)=N1` (stereo not drawn) [Compound 469], the IC50 was < 100 µM. On the same count and under the same terms, next, `CC1(c2cccc(NC(=O)c3ncccc3C(=O)c3ccccc3)c2)CCSC(N)=N1` (stereo not drawn) [Compound 1013]: < 100 µM; `COc1ccc(C(=O)Nc2cccc(C3(C)CCSC(N)=N3)c2)c(OC)n1` (stereo not drawn) [Compound 467]: < 100 µM; `CCCNc1ccc(C(=O)Nc2cccc(C3(C)CCSC(N)=N3)c2)nc1` (stereo not drawn) [Compound 114]: < 100 µM. Still for that read-out and setting: next, `CC1(c2cccc(NC(=O)c3ccccn3)c2)CCSC(N)=N1` (stereo not drawn) [Compound 352]: < 100 µM. Same read-out and setting: next, `CC1(c2cccc(NC(=O)CCNC(=O)c3ccc(C(F)(F)F)cn3)c2)CCSC(N)=N1` (stereo not drawn) [Compound 1020]: < 100 µM; `CC1(c2cccc(NC(=O)CCNC(=O)c3ccc(Cl)cc3)c2)CCSC(N)=N1` (stereo not drawn) [Compound 613]: < 100 µM. On to `CC1(c2cccc(NC(=O)c3ccc(C#N)nc3)c2)CCSC(N)=N1` (stereo not drawn) [Compound 819], for which the IC50 was < 100 µM. On the same count and under the same terms, the value for `Cc1ccc(C(=O)Nc2cccc(C3(C)CCSC(N)=N3)c2)c(C)c1` (stereo not drawn) [Compound 12] was < 100 µM. On the same count and under the same terms, the value for `COc1ccc(C(=O)Nc2cccc(C3(C)CCSC(N)=N3)c2)nc1` (stereo not drawn) [Compound 781] was < 100 µM; that for `CC1(c2cccc(NC(=O)c3cc([N+](=O)[O-])ccn3)c2)CCSC(N)=N1` (stereo not drawn) [Compound 770] was < 100 µM; that for `CC1(c2cccc(OCC(=O)Nc3ccc(O)cc3)c2)CCSC(N)=N1` (stereo not drawn) [Compound 402] was < 100 µM. On the same count and under the same terms, the value for `CC1(c2cccc(OCC(=O)Nc3nc4ccccc4s3)c2)CCSC(N)=N1` (stereo not drawn) [Compound 922] was < 100 µM; that for `COc1ccc(CC(=O)NCc2cccc(C3(C)CCSC(N)=N3)c2)cc1` (stereo not drawn) [Compound 910] was < 100 µM.

In the case of `CC(=O)NCc1cccc(C2(C)CCSC(N)=N2)c1` (stereo not drawn) [Compound 360], the IC50 is < 100 µM. For `CC1(c2cccc(OCC(=O)Nc3ccc4ccccc4n3)c2)CCSC(N)=N1` (stereo not drawn) [Compound 390], the IC50 was < 100 µM.

For `CC1(c2cccc(NC(=O)c3cc(CCO)on3)c2)CCSC(N)=N1` (stereo not drawn) [Compound 1165], the IC50 is < 100 µM.

With `CC1(c2cccc(NC(=O)c3ccco3)c2)CCSC(N)=N1` (stereo not drawn) [Compound 335], the IC50 is < 100 µM.

On to `CC1(c2cccc(OCCc3ccccc3)c2)CCSC(N)=N1` (stereo not drawn) [Compound 833], for which the IC50 was < 100 µM. Same read-out and setting: the value for `CC1(c2cc(NC(=O)c3ccc4cc[nH]c4c3)ccc2F)CCSC(N)=N1` (stereo not drawn) [Compound 560] was < 100 µM; that for `CC1(c2cc(NC(=O)c3ccc(F)cn3)cc(S(C)(=O)=O)c2)CCSC(N)=N1` (stereo not drawn) [Compound 836] was < 100 µM; that for `CC1(c2cccc(NC(=O)c3ccc4c(c3)OCO4)c2)CCSC(N)=N1` (stereo not drawn) [Compound 796] was < 100 µM. On the same count and under the same terms, next, `Cc1ccc2[nH]c(C(=O)Nc3cccc(C4(C)CCSC(N)=N4)c3)cc2c1` (stereo not drawn) [Compound 629]: < 100 µM. Still for that read-out and setting: next, `CC1(c2cccc(OCC(=O)Nc3ccc(OC(F)(F)F)cc3)c2)CCSC(N)=N1` (stereo not drawn) [Compound 326]: < 100 µM; `CC1(c2cccc(NC(=S)Nc3ccc(Br)cc3)c2)CCSC(N)=N1` (stereo not drawn) [Compound 43]: < 100 µM. As to `CC1(c2cccc(NC(=O)c3ccc(NC(=O)c4ccccn4)cn3)c2)CCSC(N)=N1` (stereo not drawn) [Compound 319], the IC50 is < 100 µM. Same read-out and setting: the value for `CC1(c2cc(Br)cc(NC(=O)c3ccco3)c2)CCSC(N)=N1` (stereo not drawn) [Compound 370] was < 100 µM. The same measure, in the same setting: next, `CC1(c2cccc(NC(=O)c3cnc(N4CCCC4)cn3)c2)CCSC(N)=N1` (stereo not drawn) [Compound 1271]: < 100 µM; `CC1(c2cccc(NC(=O)c3ccc(Br)cc3)c2)CCSC(N)=N1` (stereo not drawn) [Compound 959]: < 100 µM; `CC1(c2cccc(NC(=O)c3ccc(O)cc3)c2)CCSC(N)=N1` (stereo not drawn) [Compound 1174]: < 100 µM.

Consider `CC1(c2cc(F)cc(NC(=O)c3ncccc3C(N)=O)c2)CCSC(N)=N1` (stereo not drawn) [Compound 947], for which the IC50 is < 100 µM. Take `COc1cnc(C(=O)Nc2cccc(C3(C)CCSC(N)=N3)c2)c(C)c1` (stereo not drawn) [Compound 1211]: the IC50 is < 100 µM. On the same count and under the same terms, the value for `Cc1cc(C(=O)Nc2cc(C3(C)CCSC(N)=N3)ccc2F)c(C)o1` (stereo not drawn) [Compound 607] was < 100 µM; that for `CC1(c2cc(NC(=O)c3cocn3)ccc2F)CCSC(N)=N1` (stereo not drawn) [Compound 97] was < 100 µM. The same measure, in the same setting: the value for `CC1(c2cc(NC(=O)c3ccc(Cl)cc3Cl)ccc2F)CCSC(N)=N1` (stereo not drawn) [Compound 544] was < 100 µM; that for `Cc1cc(C(=O)Nc2cccc(C3(C)CCSC(N)=N3)c2)ccc1Cl` (stereo not drawn) [Compound 172] was < 100 µM; that for `CC1(c2cccc(NC(=O)c3cnc(NCCO)cn3)c2)CCSC(N)=N1` (stereo not drawn) [Compound 1263] was < 100 µM. Still for that read-out and setting: next, `CCOC(=O)C#Cc1cccc(C2(C)CCSC(N)=N2)c1` (stereo not drawn) [Compound 933]: < 100 µM. On to `CC1(c2cccc(NC(=O)c3c(O)cccc3F)c2)CCSC(N)=N1` (stereo not drawn) [Compound 575], for which the half-maximal inhibitory concentration (IC50) is < 100 µM. On the same count and under the same terms, next, `CC1(c2cccc(OCC(=O)Nc3cccc(Cl)c3)c2)CCSC(N)=N1` (stereo not drawn) [Compound 1145]: < 100 µM; `Cc1ccc(C(=O)Nc2cccc(C3(C)CCSC(N)=N3)c2)c(O)c1` (stereo not drawn) [Compound 569]: < 100 µM.

Consider `Cc1noc(C)c1C(=O)Nc1cccc(C2(C)CCSC(N)=N2)c1` (stereo not drawn) [Compound 491], for which the IC50 was < 100 µM.

On to `COc1cnc(C(=O)Nc2cccc(C3(C)CCSC(N)=N3)c2)c(OC)n1` (stereo not drawn) [Compound 984], for which the IC50 was < 100 µM. `CC1(c2ccc(C(=O)NCCc3ccc(Cl)cc3)s2)CCSC(N)=N1` (stereo not drawn) [Compound 442]: the IC50 was < 100 µM.

For `Cn1nc(C(=O)Nc2cccc(C3(C)CCSC(N)=N3)c2)cc1CO` (stereo not drawn) [Compound 358], the half-inhibitory concentration (IC50) is < 100 µM. On the same count and under the same terms, the value for `CC1(c2cc(NC(=S)c3ccc(Br)cc3)cc(S(C)(=O)=O)c2)CCSC(N)=N1` (stereo not drawn) [Compound 71] was < 100 µM.

The same experiment, now with this note: recombinant human BACE-1 protein, 3 h at 30° C., pH5.0; read-out: IC50 value.
Consider `COCc1cc(NC(=O)c2ccco2)cc(C2(C)CCSC(N)=N2)c1` (stereo not drawn) [Compound 176], for which the IC50 amounted to 1.48 µM. Same read-out and setting: next, `COCc1cc(NC(=O)c2ccc(Cl)cc2)cc(C2(C)CCSC(N)=N2)c1` (stereo not drawn) [Compound 395]: 1.5 µM. Still for that read-out and setting: next, `C[C@@H](NC(=O)c1ccc(C2(C)CCSC(N)=N2)s1)c1ccccc1` (stereo partly drawn) [Compound 52]: 10 µM. Consider `CC1(c2cc(Cl)cc(NC(=O)c3nc4ccccc4s3)c2)CCSC(N)=N1` (stereo not drawn) [Compound 96], for which the IC50 is 0.163 µM.

Take `CC1(c2ccc(F)c(NC(=O)c3ccc4ccccc4n3)c2)CCSC(N)=N1` (stereo not drawn) [Compound 799]: the IC50 stood at 6.7 µM. On the same count and under the same terms, the value for `COCc1cc(NC(=O)c2ccc(F)cc2)cc(C2(C)CCSC(N)=N2)c1` (stereo not drawn) [Compound 896] was 8.5 µM.
